Data from US20230095498A1, “NOVEL COMPOUND AND USE THEREOF” (THE CATHOLIC UNIVERSITY OF KOREA INDUSTRY-ACADEMIC …, priority 2020, published 2023).

Assays:
HK-2 cells [1] = experiment: Cell viability (CCK-8) in HK-2 cells under cytotoxicity induction by tacrolimus; format: cell-based, human; settings: for survival rate: Nil = 100%
Description: The human kidney-2 cell line used in this experiment was purchased from ATCC (Manassas, Va., USA) and used. These cells were cultured in Dulbecco's modified Eagle's medium (DMEM; Wisent) containing 10% fetal bovine serum (FBS; Wisent, St. Bruno, Que, Canada), 100 U/mL penicillin, and […] streptomycin (Wisent) in 5% CO2, 37° C. incubator. After 80% seeding of HK-2 cells, 24 hours later, tacrolimus was treated at a concentration of 60 to 70 μg/ml and SD911 was treated at a concentration of 1 to 20 μM and reacted for 3 to 12 hours. In the case of cells isolated as a single cell from mouse spleen tissue, after seeding 2×10^5/cell/200 μl in a 96-well plate in triplicate, each SD911 compound was treated with 1 to 20 μM and reacted for 3 days. Thereafter, the cell counting kit-8 (CCK-8, Dojindo molecular, Rockville, Mass., USA) reagent was treated for 2 hours, and then measured and analyzed at absorbance of 450 nm. The cytoprotective effect of an SD911 compound was investigated under HK-2 cytotoxicity induction by tacrolimus (Tac).

HK-2 cells [2] = experiment: Reactive oxygen species (ROS) measurement by DCF-DA flow cytometry in HK-2 cells; format: cell-based, human
Description: After 80% seeding of HK-2 cells, 24 hours later, tacrolimus was treated at a concentration of 60 to 70 μg/ml and SD911 was treated at a concentration of 1 to 20 μM and reacted for 3 to 12 hours, and then 10 μM of DCF-DA (Molecular probes, Carlebad, Calif., USA) was reacted at 37° C. for 1 hour. Then, cells were harvested and analyzed with 0.05% Trypsin and 0.53 mM EDTA. For analysis, aggregated or broken cells were removed using FSC (forward side scatter) and SSC (side scatter) scatter plots (dot plot) using a FACS Calibur (BD bioscience, San Jose, Calif., USA), and the fluorescence fraction was analyzed in the FL-1H channel (Excitation 488 nm, Emission 513 to 535 nm). Based on the cell viability identification results of Example 1, the ROS production inhibitory effect on 1, 5, and 10 μM of SD911 was investigated. […] In […] cells, the effect of SD911 on ROS production inhibitory ability and apoptosis reduction was identified. Based on the cell viability test results of Example 2 (FIG. 2), inhibitory effects of SD911 on ROS production were investigated at 1, 5, and 10 μM of SD911.

IL-10 = IL-10 ELISA of cell culture medium under anti-CD3 immune activity; format: cell-based, mouse; settings: anti-CD3 stimulation, 3 days, compared to group not treated with SD911
Description: (§1) Cell culture for ELISA was coated with 250 ul of mouse anti-CD3 antibody diluted in ccPBS with 0.5 μg/ml in a 24-well plate as many as the number of conditions. After incubation for 2 hours, the supernatant was removed and the cells were seeded at 1×10^6/cells/1 ml and then treated with each drug. After culturing for 3 days, only the cell culture medium was removed and used as IL-10 and IL-17 ELISA samples.

[3] = test system: immunodeficient mice (NSG) injected with transplantation rejection patient PBMCs; experiment: Transplantation rejection patient imitation avatar (humanized NSG mouse) model, immunosuppressant effect; format: in vivo; settings: group injected with transplantation rejection patient PBMCs
Source text: In order to produce the transplantation rejection avatar animal model of an embodiment of the present invention, PBMCs (peripheral blood mononuclear cells) derived from normal or transplantation rejection patients were intravascularly injected into 8 to 10 week old immunodeficient mice (NSG) at 5×10^6/mice. After 3 weeks, the engraftment of normal or transplantation rejection patients (kidney transplantation rejection patients) cells in the blood was identified in blood cells. Thereafter, the mice were sacrificed 4 weeks after cell transplantation to identify the infiltration of human cells and histological changes in the tissue (FIG. 8).
In order to identify that the transplantation rejection patient imitation avatar model in Example 8 above was properly constructed, engraftment of human cells was analyzed through flow cytometry. Specifically, blood was obtained from the transplantation rejection humanized mice of Example 1 (normal PBMC injection group, HC; transplantation rejection patient PBMC injection group, Patient), and then cells that were positive in reaction with human antibodies were analyzed. In addition, blood […] (SCR) concentration was measured as an index for measuring kidney damage in PBMC-injected mice of normal subjects and transplantation rejection patients. SCR was measured by the quantitative enzymatic colorimetric method (Stanbio laboratory, 0430-120) by isolating serum in animal blood.
Specifically, the transplantation rejection humanized mouse model established in Example 8 above was classified as 1) a normal PBMC injection group, 2) a normal PBMC injection group treated with an immunosuppressant, 3) a transplantation rejection patient PBMC injection group, and 4) a transplantation rejection patient PBMC injection group treated with an immunosuppressant. SD911 was used as the immunosuppressant. Specifically, the animal model of Example 8 above was treated with SD911 at 3 weeks after engraftment of PBMCs. and the same amount of physiological saline was treated as a control group. […]

HK-1 cells = experiment: Tac-induced apoptosis analysis with PI and Annexin-V; format: cell-based, human; settings: Tac combined with SD911 (10 μM), compared to Tac alone
Description: In HK-1 cells, the effect of SD911 on ROS production inhibitory ability and apoptosis reduction was identified. Based on the cell viability test results of Example 2 (FIG. 2), inhibitory effects of SD911 on ROS production were investigated at 1, 5, and 10 μM of SD911.

[4] = molecular target: T1, S1P (Sphingosine 1-phosphate) lyase (Mus musculus, UniProt Q8R0X7); experiment: S1P lyase (SPL) activity in liver lysate, HPLC; format: biochemical; settings: 5 uM inhibitor, 37° C. for 1 hour
T1 construct: After homogenizing the liver tissue of an experimental animal in a lysis buffer; from tissue; host or cells: liver tissue homogenate of an experimental animal
T1 sequence (Q8R0X7 1-568): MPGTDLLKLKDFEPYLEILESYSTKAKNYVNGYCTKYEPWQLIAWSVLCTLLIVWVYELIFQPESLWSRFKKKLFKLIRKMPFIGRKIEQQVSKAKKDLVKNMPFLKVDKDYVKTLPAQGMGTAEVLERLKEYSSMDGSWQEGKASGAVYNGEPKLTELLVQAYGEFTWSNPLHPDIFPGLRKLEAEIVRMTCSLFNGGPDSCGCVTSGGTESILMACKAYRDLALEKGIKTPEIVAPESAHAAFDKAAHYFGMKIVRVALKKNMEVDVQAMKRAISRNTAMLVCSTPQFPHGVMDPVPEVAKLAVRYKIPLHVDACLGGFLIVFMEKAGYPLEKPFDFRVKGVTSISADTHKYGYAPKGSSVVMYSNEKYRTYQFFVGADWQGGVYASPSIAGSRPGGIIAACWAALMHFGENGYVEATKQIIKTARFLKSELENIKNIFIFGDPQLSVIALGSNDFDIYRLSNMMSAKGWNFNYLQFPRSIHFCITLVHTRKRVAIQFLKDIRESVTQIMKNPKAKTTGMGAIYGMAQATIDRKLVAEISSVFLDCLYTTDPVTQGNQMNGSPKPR
Description: After homogenizing the liver tissue of an experimental animal in a lysis buffer, protein quantification was performed to secure the concentration, and a mixed solution was prepared under the conditions shown in Table 1 below and reacted at 37° C. for 1 hour.

mouse splenocytes = experiment: Toxicity test (CCK-8) on mouse splenocytes; format: cell-based; settings: SD911 1, 5, 20 μM, 3 days
Description: After 80% seeding of HK-2 cells, 24 hours later, tacrolimus was treated at a concentration of 60 to 70 μg/ml and SD911 was treated at a concentration of 1 to 20 μM and reacted for 3 to 12 hours. In the case of cells isolated as a single cell from mouse spleen tissue, after seeding 2×10^5/cell/200 μl in a 96-well plate in triplicate, each SD911 compound was treated with 1 to 20 μM and reacted for 3 days. Thereafter, the cell counting kit-8 (CCK-8, Dojindo molecular, Rockville, Mass., USA) reagent was treated for 2 hours, and then measured and analyzed at absorbance of 450 nm.

IL-17 = IL-17 ELISA of cell culture medium under anti-CD3 immune activity; format: cell-based, mouse; settings: anti-CD3 stimulation, 3 days, compared to group not treated with SD911
Description: as §1

SMILES	survival rate (HK-2 cells [1]; tacrolimus (Tac) alone) [%]	ROS (DCF-DA fluorescence fraction) (HK-2 cells [2]; tacrolimus (Tac) alone, induction of HK-2 cytotoxicity) [%]	IL-10 level (ELISA) (IL-10)	damage to kidney tissue (GN score, IN score, Vasculitis) ([3]; SD911 at 3 weeks after engraftment, sacrifice 1 week later)	infiltration of IL-17 positive cells in kidney tissue ([3]; immunohistochemical staining)	infiltration of human CD4-positive cells in kidney tissue ([3]; immunohistochemical staining)	survival rate (HK-2 cells [1]; 1 μM SD911 in combination with tacrolimus) [%]	survival rate (HK-2 cells [1]; 5 μM SD911 in combination with tacrolimus) [%]	survival rate (HK-2 cells [1]; 10 μM SD911 in combination with tacrolimus) [%]	survival rate (HK-2 cells [1]; 20 μM SD911 in combination with tacrolimus) [%]	own drug toxicity (cell viability compared to Nil) (HK-2 cells [1]; SD911 alone at 1, 5, 10 and 20 μM)	ratio of necrotic cells, apoptotic cells, and early apoptotic cells & necrotic cells (HK-1 cells)	ROS (DCF-DA fluorescence fraction) (HK-2 cells [2]; 1 μM SD911 combined with tacrolimus) [%]	ROS (DCF-DA fluorescence fraction) (HK-2 cells [2]; 5 μM SD911 combined with tacrolimus) [%]	ROS (DCF-DA fluorescence fraction) (HK-2 cells [2]; 10 μM SD911 combined with tacrolimus) [%]	fluorescence fraction of DCF-DA (ROS) (HK-2 cells [2]; SD911 alone at 1, 5 and 10 μM, compared to Nil)	reduction of S1P lyase activity compared to the control [4]	toxicity on immune cells (cell viability vs Nil group) (mouse splenocytes)	IL-17 level (ELISA) (IL-17)
C=CC[C@@H]1/C=C(\C)C[C@H](C)C[C@H](OC)[C@H]2O[C@@](O)(C(=O)C(=O)N3CCCC[C@H]3C(=O)O[C@H](/C(C)=C/[C@@H]3CC[C@@H](O)[C@H](OC)C3)[C@H](C)[C@@H](O)CC1=O)[C@H](C)C[C@@H]2OC [tacrolimus, reference compound]	56.7	31.6																	
C[C@@H]1CN(c2nnc(Oc3ccccc3)c3ccccc23)CCN1c1ccc(C#N)cn1 [SD911, 6-((R)-2-methyl-4-(1-phenoxyphthalazin-4-yl)piperazin-1-yl)pyridine-3-carbonitrile]			increased IL-10 in a concentration-dependent manner	the damage to the kidney tissue was reduced	significantly reduced	significantly reduced	81.7	81.8	72.0	37.4	did not have its own drug toxicity	significantly alleviated compared to Tac alone	36.5	13.7	9.3	almost no difference from that of Nil	about 30%	no significant difference compared to the Nil group	decreased IL-17
